# Calls of active or inactive are those of the source.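 How the source made its calls: active means compounds whose fitted half-maximal concentration in the cell-protection dose series is at or below a set limit; inactive means the rest.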
# System: H9c2 cardiomyocytes, 2-deoxyglucose stress, ATP luminescence, 2 h
# Test: H9c2 cell survival under 2-deoxyglucose stress – uHTS hits, dose response (AID 588780)
row,Structure (SMILES),IC50
1,c1ccc(-c2cc(-c3nnc4sc(-c5ccccn5)nn34)[nH]n2)cc1,> 79 µM (inactive)
2,CN(C)S(=O)(=O)c1ccc(NC(=O)COC(=O)Cn2[nH]c(=O)c3ccccc3c2=O)cc1,9.56 µM
3,COc1cc(C(=O)NNC(=O)c2ccc3ccccc3n2)cc(OC)c1OC,> 79 µM (inactive)
4,Cc1nc(N2CCN(c3ccccn3)CC2)c2c(C)c(C(=O)Nc3ccccc3F)sc2n1,10.5 µM
5,Cc1c(-c2ccccc2)oc2c(C(=O)OCC(=O)Nc3ccc(C(N)=O)cc3)cccc2c1=O,9.94 µM
6,O=C(COc1cccc(NC(=O)c2cccc([N+](=O)[O-])c2)c1)c1ccc(F)cc1,> 79 µM (inactive)
7,CCCc1cc(N2CCN(C(=O)c3ccco3)CC2)n2c(nc3ccccc32)c1C#N,21.4 µM
8,CN1CCc2nc3ccccc3c(C(=O)OCC(=O)N(CCC#N)c3ccccc3)c2C1,67.6 µM (inactive)
9,COc1ccc(-n2c(/C=C/c3ccc(O)c(OC)c3)nc3ccccc3c2=O)cc1,> 79 µM (inactive)
10,COc1ccc(-c2cc(=O)c3ccccc3[nH]2)cc1,65 µM (inactive)
11,CCOC(=O)CSc1nnc(CSc2nc3sc4c(c3c(=O)[nH]2)CCC4)n1C,> 79 µM (inactive)
12,Cc1nn(-c2ccccc2)nc1C(=O)Nc1cccc(C(=O)NC2CC2)c1,> 79 µM (inactive)
13,CCC1(CC)NC(=O)N(CC(=O)OCC(=O)Nc2ccccc2[N+](=O)[O-])C1=O,> 79 µM (inactive)
14,CCCn1c(SC(C(=O)Nc2cccc(OC)c2)c2ccccc2)nc2ccccc2c1=O (centres undefined),> 79 µM (inactive)
15,CCCCCn1nc(C(=O)OCC(=O)c2c(N)n(C)c(=O)n(C)c2=O)c2ccccc2c1=O,20.1 µM
16,CC(C)(C)OC(=O)CNC(=O)c1[nH]cnc1C(=O)Nc1ccc(CNC(=O)OC(C)(C)C)cc1,> 79 µM (inactive)
17,COc1ccc(OC)c(C(=O)COC(=O)c2ccc([N+](=O)[O-])o2)c1,> 79 µM (inactive)
18,CCCN(CC(=O)Nc1ccccc1C)C(=O)Cc1n[nH]c(=O)c2ccccc12,> 79 µM (inactive)
19,COc1ccc(-c2cc(C(=O)Nc3ccccc3N3CCOCC3)c3ccccc3n2)cc1OC,> 79 µM (inactive)
20,CCOc1ccc(S(=O)(=O)N(C)CCO)cc1-c1nc2c(C(C)(C)C)nn(C)c2c(=O)[nH]1,26.9 µM
21,CN(C(=O)c1sc2nc(N3CCOCC3)c3c(c2c1N)CCCC3)c1ccccc1,5.73 µM
22,COc1ccc2[nH]c(=O)c(-c3nnn(-c4ccc(F)cc4)n3)cc2c1,> 79 µM (inactive)
23,CCc1ccc(C(C)NC(=O)c2cc(C)oc2C)cc1 (centres undefined),> 79 µM (inactive)
24,CC(=O)Nc1cccc(-c2cc(NC=O)c3ncc(-c4ccc(C(C)=O)cc4)n3c2)c1,> 79 µM (inactive)

row,Structure (SMILES),IC50
1,CCOC(=O)c1cc2c(=O)n3ccccc3nc2n(Cc2ccco2)c1=NC(=O)c1cccnc1,22.3 µM
2,Cc1c(OCC(=O)NCCN2CCOCC2)ccc2c1oc(=O)c1ccccc12,10.9 µM
3,O=c1c2ccccc2oc2nc(-c3ccco3)n(Cc3ccccc3)c(=O)c12,> 79 µM (inactive)
4,CC(=O)Nc1cc(-c2cccc(NS(C)(=O)=O)c2)cn2c(-c3cccc(C(C)=O)c3)cnc12,> 79 µM (inactive)
5,COc1cc(/C=N/n2nnnc2Nc2ccccc2)cc(OC)c1OC,26.8 µM
6,CNc1ccccc(C(=O)/C=C/c2ccccc2OC)c1=O,> 79 µM (inactive)
7,O=C1c2ccccc2C(=O)N1CCCCSc1nc2ccccc2c(=O)n1CCCN1CCOCC1,58.6 µM (inactive)
8,CC(=O)Nc1cccc(NC(=O)CSc2ccc(-c3ccccn3)nn2)c1,> 79 µM (inactive)
9,Nc1c(C(=O)NC2CCCC2)c2nc3ccccc3nc2n1N,> 79 µM (inactive)
10,Cc1ccc2cc3c(NC(=O)c4cccnc4)nn(C)c3nc2c1,> 79 µM (inactive)
11,CC1(C)Cc2c(C#N)c(SCc3nc4ccccc4[nH]3)nc(N3CCOCC3)c2CO1,> 79 µM (inactive)
12,Cc1ccc(NC(=O)CCCc2nc3ccccc3c(=O)[nH]2)c(Cl)c1,40 µM (inactive)
13,O=C(NC(O)C(=O)c1cccs1)c1cccnc1 (centres undefined),> 79 µM (inactive)
14,CC(=C/c1ccc(C(C)C)cc1)/C=N/NC(=O)c1ccncc1,> 79 µM (inactive)
15,CCCCCCn1cnc2c(c1=O)c1nc3ccccc3nc1n2/N=C/c1ccco1,> 79 µM (inactive)
16,O=c1[nH]n(CC2COC3(CCCCC3)O2)c(=O)c2ccccc12 (centres undefined),> 79 µM (inactive)
17,CCOC(=O)c1cnc2ccc(C(=O)OC)cc2c1NCCc1ccc(OC)c(OC)c1,> 79 µM (inactive)
18,Cn1c(=O)c2c(nc(Br)n2Cc2ccc3ccccc3c2)n(C)c1=O,> 79 µM (inactive)
19,Cc1ccc(C=NNc2nc3c([nH]2)c(=O)n(C)c(=O)n3C)cc1,11.8 µM
20,C[C@H](CO)N1C[C@H](C)[C@@H](CN(C)C(=O)Nc2ccc3c(c2)OCO3)Oc2c(NC(=O)Nc3ccc(C(F)(F)F)cc3)cccc2C1=O,> 79 µM (inactive)
21,O=c1cc(CSc2ccc([N+](=O)[O-])cc2)nc2sccn12,> 79 µM (inactive)
22,O=C(Oc1cccc2c(=O)[nH]ccc12)c1ccccc1,9.07 µM
23,COc1ccc(CCn2c(=O)c3cccnc3n(Cc3ccc([N+](=O)[O-])cc3)c2=O)cc1OC,10.1 µM
24,COc1cc(NC(=O)c2ccco2)c(OC)cc1NC(=O)c1cc(OC)c(OC)c(OC)c1,> 79 µM (inactive)

row,Structure (SMILES),IC50
1,Cc1cccc(NC(=O)COc2cccc3c2CCNC3=O)c1,> 79 µM (inactive)
2,N#CC1(NC(=O)COC(=O)Cn2[nH]c(=O)c3ccccc3c2=O)CCCCC1,> 79 µM (inactive)
3,CCOc1ncccc1C(=O)Nc1cccc(-c2nc3cccnc3s2)c1,> 79 µM (inactive)
4,COc1cccc(-c2cnc3c(NC(C)=O)cc(-c4cc(OC)c(OC)c(OC)c4)cn23)c1,> 79 µM (inactive)
5,O=C(Cn1[nH]c(=O)c2ccccc2c1=O)N1CCN(S(=O)(=O)c2ccc(Cl)cc2)CC1,> 79 µM (inactive)
6,CCC(C)Nc1ncnc2c1cnn2Cc1ccc(Cl)cc1 (centres undefined),> 79 µM (inactive)
7,O=C(N/N=C\c1ccccn1)c1cccc(C(=O)N/N=C\c2ccccn2)n1,36 µM (inactive)
8,O=C(CCc1nc2ccccc2c(=O)[nH]1)Nc1ccc(F)c([N+](=O)[O-])c1,6.81 µM
9,O=C(Nc1nc(-c2ccccn2)cs1)c1ccc(-c2ccccc2F)o1,> 79 µM (inactive)
10,CC(=O)Nc1ccc2c(c1)[nH]c(=O)c1ccccc12,76.5 µM (inactive)
11,COc1ccc(-c2csc(NC(=O)c3ccc(OCC(=O)N4CCOCC4)c(OC)c3)n2)cc1OC,> 79 µM (inactive)
12,CN(CC(=O)Nc1ccc(F)cc1)C(=O)CCc1nc2ccccc2c(=O)[nH]1,> 79 µM (inactive)
13,NC(=O)c1ccccc1OCC(=O)Nc1cccnc1Cl,> 79 µM (inactive)
14,Cc1ccc2[nH]c(=O)c(CN(CCCN3CCOCC3)C(=O)Nc3ccc(Cl)cc3)cc2c1,> 79 µM (inactive)
15,O=C(CCc1nc2ccccc2c(=O)[nH]1)OCC(=O)N1CCc2ccccc21,> 79 µM (inactive)
16,COc1cccc(-c2cc3nc(C)c(C)c(N4CCN(C(=O)c5ccoc5)CC4)n3n2)c1,> 79 µM (inactive)
17,O=S(=O)(c1ccc(Cl)cc1)c1cc(O)ccc1O,> 79 µM (inactive)
18,COc1ccc(Cl)cc1NC(=O)CN(C)C(=O)CCc1nc2ccccc2c(=O)[nH]1,> 79 µM (inactive)
19,O=C(OCC(=O)N1CCc2ccccc21)c1n[nH]c(=O)c2ccccc12,> 79 µM (inactive)
20,Cc1ccc(C(C(=O)NCc2ccccc2)N(Cc2cccs2)C(=O)c2ccc3c(c2)OCCO3)cc1 (centres undefined),> 79 µM (inactive)
21,COc1ccc(OCC(=O)NCc2n[nH]c(=O)c3ccccc23)cc1,> 79 µM (inactive)
22,COc1cccc(-c2cnc3c(NC=O)cc(-c4cccc(NC(C)=O)c4)cn23)c1,> 79 µM (inactive)
23,C=CCC[C@H](Cc1ccc(F)cc1)C(=O)OC[C@@H](Cc1c[nH]c2ccccc12)NC(=O)[C@@H](CC=C)CC(=O)NCCO,> 79 µM (inactive)
24,O=C(N/N=C/c1ccccn1)c1cc(-c2ccncc2)nc2ccccc12,> 79 µM (inactive)

row,Structure (SMILES),IC50
1,O=C(CN1C(=O)CCC1=O)Nc1nc(-c2ccccn2)cs1,43.2 µM (inactive)
2,O=c1oc(-c2ccco2)nc2c1cnn2-c1ccccc1,> 79 µM (inactive)
3,CN(C)Cc1ccc(-c2nc3cccc4c3n2CCNC4=O)cc1,49.2 µM (inactive)
4,CNS(=O)(=O)c1ccc2nc(NC(=O)/C=C/c3ccco3)sc2c1,> 79 µM (inactive)
5,COc1ccc(COc2cc(-c3cccc(OC)c3)nc3ccc(NC(=O)c4ccc(OC)cc4)cc23)cc1,5.3 µM
6,Cn1c(-c2ccc(Cl)cc2)cnc1N,> 79 µM (inactive)
7,COc1ccc(-c2csc(/C(C#N)=C(\O)CSc3nccn3C)n2)cc1OC,> 79 µM (inactive)
8,CCC(=O)N1CCN(c2ccccc2NC(=O)c2ccc(-c3cccc([N+](=O)[O-])c3)o2)CC1,> 79 µM (inactive)
9,CCOC(=O)c1c(C)[nH]c(C(=O)COc2ccc3ccc(=O)oc3c2)c1C,> 79 µM (inactive)
10,O=C(OCc1nnc(-c2ccccc2)o1)c1ccc([N+](=O)[O-])s1,24.8 µM
11,COc1ccccc1C(=O)Nc1nc(-c2ccc3c(c2)OCCO3)cs1,> 79 µM (inactive)
12,CC(C)(C)C(=O)Nc1ccc(C(=O)N/N=C/c2ccccc2OC(=O)c2ccccc2)cc1,> 79 µM (inactive)
13,O=C(CCc1nc2ccccc2c(=O)[nH]1)Nc1ccc(N2CCCCC2)cc1,19.8 µM
14,Cc1[nH]c2ccccc2c1/C=N/NC(=O)c1cc(-c2ccccc2)n[nH]1,> 79 µM (inactive)
15,O=C/C(=C\Nc1ccccn1)c1nc2cc(Cl)ccc2o1,> 79 µM (inactive)
16,Cc1nc(NC(=O)c2cc3c(C)nn(-c4ccccc4)c3s2)sc1C(=O)Nc1ccccc1,> 79 µM (inactive)
17,CCOC(=O)N1CCN(C(=O)CSc2nc3ccccc3c(=O)n2-c2ccccc2)CC1,33.6 µM (inactive)
18,CC(C)(C)c1nn(-c2ccccc2)c2[nH]c(=O)c(CNCc3ccco3)cc12,40.3 µM (inactive)
19,CCN(CC)c1ccc(C2C(C(=O)OC(C)C)C(=O)CC(C)(O)C2C(=O)OC(C)C)cc1 (centres undefined),18.2 µM
20,CC(OC(=O)CCc1nc2ccccc2c(=O)[nH]1)C(=O)NC1CCCC1 (centres undefined),57.3 µM (inactive)
21,N#C/C(=C1\CCCN1)c1nc2ccccc2c(=O)[nH]1,> 79 µM (inactive)
22,O=C(c1cc(=O)[nH]c2ccccc12)N1CCN(S(=O)(=O)c2ccc(Cl)cc2)CC1,> 79 µM (inactive)

# — PubChem BioAssay AID588780 (Sanford-Burnham Center for Chemical Genomics, 2011)
